According to patent US7531565B2, “Imidazolidin-2-one derivatives as selective androgen receptor modulators (SARMS)” (Janssen Pharmaceutica, N.V., priority 2004, dated 2009):

Columns and labels:
androgen receptor [1] = biological target: T1, androgen receptor (Rattus norvegicus, UniProt P15207); assay: L929 androgen receptor functional assay, adenovirus transduction; format: cell-based; set-up: expressed in transfected cells; conditions: 3 μM, L929 cells; for % Activition @ 3 μM: agonist testing (no R1881), luciferase
T1 sequence (P15207 1-902): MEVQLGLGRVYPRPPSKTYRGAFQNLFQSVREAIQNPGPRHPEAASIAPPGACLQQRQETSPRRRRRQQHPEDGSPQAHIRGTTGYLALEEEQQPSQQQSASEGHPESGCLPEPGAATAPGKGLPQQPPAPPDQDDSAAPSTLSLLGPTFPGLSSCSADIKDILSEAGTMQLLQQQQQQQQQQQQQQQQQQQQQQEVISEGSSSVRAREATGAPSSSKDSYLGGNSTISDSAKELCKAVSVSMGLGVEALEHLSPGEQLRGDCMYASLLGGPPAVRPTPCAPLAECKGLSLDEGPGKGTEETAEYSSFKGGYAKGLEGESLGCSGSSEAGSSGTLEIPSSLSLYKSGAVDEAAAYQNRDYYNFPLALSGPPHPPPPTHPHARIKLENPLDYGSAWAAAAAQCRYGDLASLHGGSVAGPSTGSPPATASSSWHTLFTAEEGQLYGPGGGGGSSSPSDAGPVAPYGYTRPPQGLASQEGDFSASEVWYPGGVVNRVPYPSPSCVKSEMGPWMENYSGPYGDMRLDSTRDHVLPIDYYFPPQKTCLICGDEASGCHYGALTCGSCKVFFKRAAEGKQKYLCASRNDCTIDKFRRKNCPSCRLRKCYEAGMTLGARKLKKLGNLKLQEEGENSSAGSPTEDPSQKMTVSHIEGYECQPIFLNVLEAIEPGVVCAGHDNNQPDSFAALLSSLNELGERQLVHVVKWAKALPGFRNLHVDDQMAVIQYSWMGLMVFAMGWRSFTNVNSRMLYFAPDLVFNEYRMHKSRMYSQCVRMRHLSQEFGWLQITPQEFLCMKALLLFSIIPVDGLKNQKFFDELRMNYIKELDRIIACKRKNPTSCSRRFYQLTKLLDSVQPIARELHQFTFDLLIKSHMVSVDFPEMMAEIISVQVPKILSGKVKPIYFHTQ
Protocol: L929 cells were plated in 96-well plates at 20,000 cells per well, in DMEM/F12 (GIBCO) containing 10% (v/v) charcoal-treated fetal bovine serum (Hyclone) and lacking phenol red. The plates were then incubated overnight at 37° C. in 5% (v/v) humidified CO2.
Test compound dilutions were prepared in 100% (v/v) DMSO, if necessary. Each dilution was made to 1250× the final desired assay concentration. First, 2 mL of DMEM/F12 lacking phenol red was pipetted into the wells of a 2-mL 96-well assay block. Next, 4 μL of the 1250× test compound dilutions were pipetted into each well of the assay block. The mixtures within the well were then carefully mixed by pipette.
In a 15 mL or 50 mL sterile centrifuge tube, a 2.5 nM (2.5×) dilution of R1881 (methyl-trienolone) in DMEM/F12 lacking phenol red was prepared. In a second 15 mL or 50 mL centrifuge tube a solution containing an equal volume of DMEM to the first and an equal volume of 100% (v/v) DMSO to the volume of R1881 used in the first tube was prepared.
In a 15 mL or 50 mL sterile centrifuge tube, a dilution in DMEM/F12 of the adenovirus AdEasy+rAR at an moi of 1:500 per well was prepared. The medium was removed from the 96-well plates by inversion and dried, inverted, very briefly. As soon as possible after medium removal, 40 μL of the diluted unlabeled test compound was added to each well, in duplicate. To each well designated for antagonist testing was added 40 μL of the 2.5 nM R1881 dilution to the wells for antagonist testing. To each well designated for agonist testing was added 40 μL of the DMSO dilution. Then 20 μL of the diluted adenovirus were added to all wells. The plates were incubated for 48 hours at 37° C. in 5% (v/v) humidified CO2.
To each well was added 100 μL of Steady-Glo luciferase assay substrate (Promega) and the plates were placed on a rotary shaker for 1 min. The plates were then incubated at room temperature in the dark for one hour. The contents of each well were then transferred to a white microtiter plate (Packard) and read on a Luminoskan Ascent (Thermo Lab Systems).
L929 AR percent activity was determined by testing dilutions of the test compound using a concentration of 3000 nM unless otherwise noted. L929 percent inhibition was determined by testing dilutions of the test compound using a concentration of 3000 nM. EC50s and IC50s were determined by testing serial dilutions of the test compound (usually duplicate ten half-log dilutions starting at 10 μM). Luciferase activity per well were measured and EC50s and IC50s determined by linear regression.
Representative compounds of the present invention were tested for functional activity at the androgen receptor according to the procedure described above with results as listed in Table 4.

[2] = test system: castrated male Sprague Dawley rats; assay: Ventral prostate and seminal vesicle weight in vivo assay; set-up: species or system rat; key: A test compound was said to be “active” if the non weight adjusted prostate weight was ≦60 mg or ≧84 mg; they are listed herein as “inactive” as they did not meet the specified criteria defined above; conditions: immature castrated rats, once daily for five days, usually orally 40 mg/kg, with testosterone propionate 2 mg/kg s.c.
Protocol: Immature (approximately 50 g) castrated male Sprague Dawley rats (Charles River) were treated once daily for five days with test compound (usually given orally at 40 mg/kg in a volume of 0.3 mL, in 30% cyclodextrin or 0.5% methylcellulose vehicle) and with testosterone propionate (given subcutaneously by injection at the nape of the neck at 2 mg/kg, in a volume of 0.1 mL in sesame oil). On the sixth day, the rats were euthanized by asphyxiation in carbon dioxide. Ventral prosatates and seminal vesicles were removed and their wet weights determined. Test compound activity was determined as the percent inhibition of testosterone-enhanced tissue weights, with a vehicle-treated control group set to zero percent and a testosterone alone-treated control group set to 100%.
A test compound was said to be “active” if the non weight adjusted prostate weight was ≦60 mg or ≧84 mg.

androgen receptor [3] = biological target: T1, androgen receptor; assay: Androgen receptor binding using rat ventral prostate cytosol; set-up: Male Sprague Dawley or Wistar rats (Charles River, 200-300 g) were used for each preparation; from tissue; host or cells: ventral prostate cytosol of castrated male Sprague Dawley or Wistar rats
androgen receptor [4] = biological target: T1, androgen receptor; assay: COS-7 whole-cell androgen receptor binding assay, adenovirus transduction; set-up: expressed in transfected cells; conditions: 3 μM (3000 nM); COS-7 cells, [3H]R1881, AdEasy+rAR
Protocol: COS-7 cells were plated in 96-well plates at 20,000 cells per well, in a solution of DMEM/F12 (GIBCO) containing 10% (v/v) charcoal-treated fetal bovine serum (Hyclone) and lacking phenol red. The cells were then incubated overnight at 37° C. in 5% (v/v) humidified CO2.
Test compound solutions were prepared by diluting the test compound in 100% (v/v) DMSO, if necessary. Each dilution yielded a solution which was 625× the final desired test concentration.
Next, 1 mL of DMEM/F12 lacking phenol red was pipetted into each of the wells of a 2-mL 96-well assay block. Then 4 μL of the 625× test compound dilutions were pipetted into each well of the assay block. The wells were carefully mixed by pipette.
In a 15 mL or 50 mL sterile centrifuge tube, a 2.5 nM dilution of tritiated methyl-trienolone in DMEM/F12 lacking phenol red ([^3H]R1881; Perkin-Elmer) was prepared.
In a 15 mL or 50 mL sterile centrifuge tube, a dilution in DMEM/F12 of the adenovirus AdEasy+rAR at a moi of 1:50 per well was prepared.
The medium was removed from the 96-well plates by inversion and the plates dried very briefly, inverted, on a sterile towel. As soon as possible after medium removal, 40 μL of the diluted test compound was added to each well, in duplicate. To each well was then added 40 μL of the 2.5 nM [^3H]R1881 and 20 μL of the diluted adenovirus. The plates were then incubated for 48 hours at 37° C. in 5% (v/v) humidified CO2.
The medium was removed from the above incubated plates by inversion and dried. Each well was then washed with 0.35 mL of 1×PBS. The PBS was then removed from the plates by inversion and the plates dried.
To each well was then added 50 μL of 0.5% (v/v) Triton X-100 (Sigma) in 1×PBS and the plates placed on a rotary shaker for 5 min. The contents of each well were then transferred to an OptiPlate-96 (Packard) scintillation plate. To each well was then added 0.2 mL of Microscint-20 (Packard) and the wells counted on a TopCount (Packard).
Percent inhibition was determined by testing dilutions of the test compound (usually duplicates of 10 μM) in the binding assay. Counts per well were measured and percents of inhibition determined. Androgen receptor binding IC50s were determined by testing serial dilutions of the test compound (usually duplicate ten half-log dilutions starting at 10 μM) in the binding assay. Counts per well were measured and IC50s determined by linear regression.
Representative compounds of the present invention were tested for binding to the androgen receptor according to the procedure described above with results as listed in Table C. Unless otherwise noted, COS binding % inhibition was determined using a concentration of 3000 nM. For compounds tested more than once, each result is listed separately in Table 3 below.

[5] = antagonist testing with R1881, luciferase

| Structure (SMILES) | % Activition @ 3 μM (androgen receptor [1]) [%] | inhibition at 3 µM (androgen receptor [1]; antagonist testing with R1881, luciferase, read-out: % Inhibition @ 3 μM) [%] | active / inactive by non weight adjusted prostate weight [2] | inhibition at 3 µM (androgen receptor [3]) [%] | % Inhibition @ 3 μM (androgen receptor [1]; [5]) [%] | % Inhibition @ 3 μM (androgen receptor [3]) [%] | % Inhibition @ 3 μM (androgen receptor [4]) [%] |
| --- | --- | --- | --- | --- | --- | --- | --- |
| COC(=O)C1(C)CN(c2ccc(F)cc2)C(=O)N1 (stereo not shown) [Compound 4a, 1-(4-Fluoro-phenyl)-4-methyl-2-oxo-imidazolidine-4-carboxylic acid methyl ester] | 0 | -20 | inactive | -57 |  |  |  |
| CC1(C(=O)O)CN(c2ccc(C#N)c(C(F)(F)F)c2)C(=O)N1 (racemic) [Compound 5e] | 0 |  | active |  | 30 | −67 |  |
| CC1(C(=O)Nc2ccc(C#N)c(C(F)(F)F)c2)CN(Cc2ccc(F)cc2)C(=O)N1 (racemic) [Compound 6i] | 0 |  |  |  | 76 | 4 | 28 |
| CC1(C(=O)Nc2ccc(Cl)c(C(F)(F)F)c2)CN(c2ccc(F)cc2)C(=O)N1 (racemic) [Compound 6f] | 3 |  |  |  | 85 | 66 | 35 |
